Laboratory results from article PMC7156458, “Synthetic biology based construction of biological activity-related library of fungal decalin-containing diterpenoid pyrones” (Nature Communications, 2020).
Values joined by “and” are separate entries in the source; they are usually repeats but may differ in a detail not shown here. Equal values may be shown once. Read-outs that look alike come from different tables or passages of the source.

How the values were obtained:
[1] = test system: human immunodeficiency virus-1 (HIV-1); experiment: anti-HIV MAGI assay; format: cell-based; settings: anti-HIV
Description: (§1) We examined the inhibitory activities of DDPs against various species of bacteria (both gram-negative and gram-positive bacteria), fungi and viruses. […] In contrast, preliminary screening of the DDPs for anti-viral agents with hepatitis B virus (HBV), measles virus (MV), Epstein-Barr virus (EBV), herpes simplex virus (HSV) and human immunodeficiency virus-1 (HIV-1) indicated their selective inhibition of HIV.

MAGI cells = experiment: cytotoxicity in the anti-HIV assay (CC50); format: cell-based; settings: for Cytotoxicity Avg.: average of numeric determinations; for Cytotoxicity: single determinations
Description: as §1
Policy information about cell lines […]
HeLa-CD4-LTR/ !-galactosidase (MAGI) cells provided by Dr. J. Overbaugh through the NIH AIDS Research and Reference […]
MAGI cells were authenticated by the NIH.
Mycoplasma contamination All the cell lines tested negative for mycoplasma contamination.
Commonly misidentified lines No commonly mis-identified cell lines. […]

MCF-7 cells = experiment: cell cytotoxic effects against MCF-7 cells (72 h), A490; format: cell-based, human
[2] = cytotoxicity in Drosophila DL1 cells; format: cell-based; settings: Drosophila, DL1 cells (embryonic macrophage-derived), DL1 cells
Procedure: (§2) We screened the DDPs on the Drosophila assay system for cytotoxicity, inhibitory activity of innate immune signalling and insecticidal activity. The cytotoxicity of the DDPs was evaluated using two cell lines, embryonic macrophage-derived DL1 cells[58]–[60] and larval blood cell-derived l(2)mbn cells, and their IC50 values are listed in Supplementary Table 23.

DL1 cells = experiment: cytotoxicity in Drosophila DL1 cells; format: cell-based; settings: DL1 cells; for IC50: Drosophila melanogaster, cytotoxicity
Procedure: as §2

[3] = cytotoxicity in Drosophila l(2)mbn cells; format: cell-based; settings: Drosophila, l(2)mbn cells (larval blood cell-derived)
Procedure: as §2

l(2)mbn cells = experiment: cytotoxicity in Drosophila l(2)mbn cells; format: cell-based; settings: for Luminescence Raw1: replicate 1; for Luminescence Raw2: replicate 2; for IC50: Drosophila melanogaster, cytotoxicity
Procedure: as §2

[4] = Human immunodeficiency virus 1, MAGI, average of numeric determinations, read-out: Avg. EC50
[5] = MCF-7, 72 h, 0.1 µM (DMSO 0.002%), control 1.064
[6] = MCF-7, 72 h, 1 µM (DMSO 0.02%), control 1.104
[7] = MCF-7, 72 h, 10 µM (DMSO 0.2%), control 1.049
[8] = replicate 1, relative to DMSO 1%, read-out: % viability, viability 1
[9] = replicate 2, relative to DMSO 1%, read-out: % viability, viability 2
[10] = average of two replicates, read-out: IC50 Average
[11] = replicate 1, read-out: IC50 (1)
[12] = replicate 2, read-out: IC50 (2)

SMILES: C=C1CC[C@@H]2[C@](C)(CC[C@H]3O[C@H](C=C(C)C)C[C@@]23C)[C@@H]1Cc1c(OC)oc(C)c(C)c1=O [Compound 22, O-methylated higginsianin A]
- EC50 [1, 4]: 0.143 µM
- Cytotoxicity Avg. (MAGI cells): 5.079 µM
- Cytotoxicity (MAGI cells): 5.68 µM and 5.915 µM and 3.643 µM
- cytotoxicity against the bulk of MCF-7 cells (MCF-7 cells): dose-dependent cytotoxicity
- viability at 0.1 µM (MCF-7 cells; Homo sapiens, MCF7, 72 h, MCF-7, 72 h, 0.1 µM (DMSO 0.002%), read-out: A490 (control =1) ave): 81.4%
- viability at 1 µM (MCF-7 cells; Homo sapiens, MCF7, 72 h, MCF-7, 72 h, 1 µM (DMSO 0.02%), read-out: A490 (control =1) ave): 48%
- viability at 10 µM (MCF-7 cells; Homo sapiens, MCF7, 72 h, MCF-7, 72 h, 10 µM (DMSO 0.2%), read-out: A490 (control =1) ave): 30.1%
- A490 ave (MCF-7 cells; [5]): 0.866
- A490 ave (MCF-7 cells; [6]): 0.530
- A490 ave (MCF-7 cells; [7]): 0.316

SMILES: C=C1CCC2C(C)(CCC=C(C)C)C(=O)CCC2(C)C1Cc1c(O)c(C)c(C)oc1=O (stereo not shown) [Compound 8]
- EC50 [1, 4]: 0.0232 µM
- Cytotoxicity Avg. (MAGI cells): 8.816 µM
- Cytotoxicity (MAGI cells): 9.604 µM and 7.239 µM
- viability at 0.04 µM [2, 8]: 189%
- viability at 0.04 µM [2, 9]: 219%
- viability at 0.2 µM [2, 8]: 185%
- viability at 0.2 µM [2, 9]: 208%
- viability at 1 µM [2, 8]: 129%
- viability at 1 µM [2, 9]: 131%
- viability at 4 µM [2, 8]: 18.2%
- viability at 4 µM [2, 9]: 20.6%
- viability at 10 µM [2, 8]: 22.8%
- viability at 10 µM [2, 9]: 24.1%
- viability at 20 µM [2, 8]: 21.6%
- viability at 20 µM [2, 9]: 21.3%
- Luminescence Raw1 (DL1 cells; 0.04 µM, replicate 1): 2594102
- Luminescence Raw2 (DL1 cells; 0.04 µM, replicate 2): 2999528
- Luminescence Raw1 (DL1 cells; 0.2 µM, replicate 1): 2536752
- Luminescence Raw2 (DL1 cells; 0.2 µM, replicate 2): 2851638
- Luminescence Raw1 (DL1 cells; 1 µM, replicate 1): 1767451
- Luminescence Raw2 (DL1 cells; 1 µM, replicate 2): 1791254
- Luminescence Raw1 (DL1 cells; 4 µM, replicate 1): 250019
- Luminescence Raw2 (DL1 cells; 4 µM, replicate 2): 282109
- Luminescence Raw1 (DL1 cells; 10 µM, replicate 1): 313118
- Luminescence Raw2 (DL1 cells; 10 µM, replicate 2): 331147
- Luminescence Raw1 (DL1 cells; 20 µM, replicate 1): 296893
- Luminescence Raw2 (DL1 cells; 20 µM, replicate 2): 291484
- IC50 (DL1 cells; [10]): 5.02 µM
- IC50 (DL1 cells; average±SEM, read-out: IC50): 5.02 ± 0.22 µM
- IC50 (DL1 cells; [11]): 4.8 µM
- IC50 (DL1 cells; [12]): 5.25 µM
- viability at 0.04 µM [3, 8]: 86%
- viability at 0.04 µM [3, 9]: 82.2%
- viability at 0.2 µM [3, 8]: 87.7%
- viability at 0.2 µM [3, 9]: 91.3%
- viability at 1 µM [3, 8]: 86.7%
- viability at 1 µM [3, 9]: 91.8%
- viability at 4 µM [3, 8]: 70.7%
- viability at 4 µM [3, 9]: 85.1%
- viability at 10 µM [3, 8]: 2.83%
- viability at 10 µM [3, 9]: 2.94%
- viability at 20 µM [3, 8]: 1.82%
- viability at 20 µM [3, 9]: 2.53%
- Luminescence Raw1 (l(2)mbn cells; 0.04 µM): 5399824
- Luminescence Raw2 (l(2)mbn cells; 0.04 µM): 5163481
- Luminescence Raw1 (l(2)mbn cells; 0.2 µM): 5509158
- Luminescence Raw2 (l(2)mbn cells; 0.2 µM): 5734687
- Luminescence Raw1 (l(2)mbn cells; 1 µM): 5444928
- Luminescence Raw2 (l(2)mbn cells; 1 µM): 5762112
- Luminescence Raw1 (l(2)mbn cells; 4 µM): 4437905
- Luminescence Raw2 (l(2)mbn cells; 4 µM): 5343895
- Luminescence Raw1 (l(2)mbn cells; 10 µM): 177623
- Luminescence Raw2 (l(2)mbn cells; 10 µM): 184474
- Luminescence Raw1 (l(2)mbn cells; 20 µM): 114164
- Luminescence Raw2 (l(2)mbn cells; 20 µM): 158874
- IC50 (l(2)mbn cells; [10]): 5.14 µM
- IC50 (l(2)mbn cells; average±SEM, read-out: IC50): 5.14 ± 0.3 µM
- IC50 (l(2)mbn cells; [11]): 4.83 µM
- IC50 (l(2)mbn cells; [12]): 5.44 µM

SMILES: C=C1CCC2C(C)(CCC=C(C)C)C(O)CCC2(C)C1Cc1c(OC)oc(CO)c(C)c1=O (stereo not shown) [Compound 16]
- EC50 ([1]; average of numeric determinations, read-out: Avg. EC50): 0.0483 µM
- EC50 ([1]; single determinations, read-out: Efficacy (EC50)): 0.0556 µM and 0.0364 µM and 0.0546 µM and 0.0464 µM
- Cytotoxicity Avg. (MAGI cells): 6.65 µM
- cytotoxicity against the bulk of MCF-7 cells (MCF-7 cells): Low-toxicity
- A490 ave (MCF-7 cells; [5]): 0.808
- A490 ave (MCF-7 cells; [6]): 1.178
- A490 ave (MCF-7 cells; [7]): 0.730
